Data: PMC7982615, “Phase 1 study of telisotuzumab vedotin in Japanese patients with advanced solid tumors” (Cancer Medicine, 2021)
Where two headings read alike, the source gives them in different places. Marks after values point to notes of the source that are not given here. Non-standard residues stand in square brackets, D forms with d. Residues, ends and D or L forms follow the SMILES beside them. *: point of attachment. Dolaproine = CO[C@@H]([C@@H]1CCCN1)[C@@H](C)C(=O)O; Dil = CC[C@H](C)[C@H](NC)[C@@H](CC(=O)O)OC; X1 = C[C@@H](N*)[C@@H](O)c1ccccc1; NMeV = CN[C@H](C(=O)O)C(C)C

Columns and labels:
[1] = system: CD30‐positive Hodgkin lymphoma or systemic anaplastic large cell lymphoma; design: method as in PMID 24814862; conditions: US and Japanese patients; cited from earlier work
[2] = Pharmacokinetics of teliso‐v conjugate and MMAE, noncompartmental; format: in vivo, human; conditions: for AUCtau, MMAE / Cmax, MMAE: geometric mean (%CV); for t1/2, MMAE: harmonic mean (min-max); for Tmax, MMAE: median (min-max)
Method: PK samples were also collected on cycles 2 and 4 predose and approximately 30 minutes after the end of infusion on day 1. PK parameters such as peak concentration (Cmax), time to peak concentration, area under the concentration‐time curve (AUC), and terminal half‐life (t1/2) were determined using noncompartmental methods.

[3] = system: MET exon 14‐mutated NSCLC; design: method as in earlier work; conditions: cited from earlier work
[4] = cycle 1, after teliso-v 2.4 mg/kg IV, n = 3
[5] = cycle 1, after teliso-v 2.7 mg/kg IV, n = 6

## brentuximab vedotin
[1]
  Ethnic differences in PK: no remarkable ethnic differences in PK were found

## CC[C@H](C)[C@@H]([C@@H](CC(=O)N1CCC[C@H]1[C@H](OC)[C@@H](C)C(=O)N[C@H](C)[C@@H](O)c1ccccc1)OC)N(C)C(=O)[C@@H](NC(=O)[C@@H](NC)C(C)C)C(C)C [MMAE, monomethyl auristatin E] (H-[NMeV]V[Dil][Dolaproine]-X1)
[2]; N = 9, both dose levels
  t1/2: 96 to 140 h
[2]; [4]
  AUCtau, MMAE: 535 (7) ng*h/mL
  Cmax, MMAE: 1.69 (10) ng/mL
  t1/2, MMAE: 5.80 (4.5–7.8) days
  Tmax, MMAE: 168.5 (72.5–168.5) h
[2]; cycle 1, after teliso-v 2.7 mg/kg IV, N = 4
  t1/2, MMAE: 4.01 (3–5.6)^c days
[2]; [5]
  AUCtau, MMAE: 764 (78) ng*h/mL
  Cmax, MMAE: 2.80 (77) ng/mL
  Tmax, MMAE: 168.5 (72.5–168.5) h
[2]; first dose of teliso‐v, cycle 1, across 2.4 and 2.7 mg/kg
  Plasma Cmax, preliminary geometric mean: 1.69 to 2.80 ng/mL
[2]; multiple dosing Q3 W
  Accumulation in cycle 3: 1.1–1.2 fold

## CNC(=O)c1ccc(-c2cnc3ncc(Cc4ccc5ncccc5c4)n3n2)cc1F [capmatinib]
[3]; one to two prior lines of treatment
  ORR: 39.1%
[3]; treatment‐naive patients
  ORR: 71.4%
